According to patent US4443466A, “4-Benzyl- and 4-benzoyl-substituted imidazole derivatives and use as medicaments” (priority 1980, dated 1984):
Read-outs that look alike come from different tables or passages of the source.

Experiments:
[1] = system: anesthetized Sprague-Dawley rats (blood pressure, pulse frequency); experiment: Blood pressure and pulse frequency in anesthetized normal-weight Sprague-Dawley rats (i.v.); type: in vivo, rat (Sprague-Dawley); conditions: for minimal effective dose: Rattus norvegicus, iv
Experimental: The anti-hypertensive properties of the imidazole derivatives of the present invention have been determined according to the following procedure. Sprague-Dawley rats of normal weight were first anesthetized with urethane. After this, the femoral artery was connected by way of a polyethylene tube with a blood pressure transducer. The test substance was then injected into the femoral vein and the blood pressure and the pulse frequency were registered with a recorder. The minimum doses producing a significant change were found, i.e. ± at least 20% in the case of blood pressure, and ± at least 3% in the case of pulse frequency.

[2] = system: rats (motility, muscle tone, catalepsia); experiment: Tranquilizing activity: Irwin screen in rats; type: in vivo, rat
Experimental: (§1) The tranquilizing activity of the compounds was determined by the following methods:
(1) Irwin screen in rats (Irwin S., Psychopharmacologia 13:222, 1968)
Especially sedatory and cataleptic activity and effects on muscle tone are observed.

[3] = system: cattle (avoidance, muscle tone); experiment: Tranquilizing or taming effect on cattle; type: in vivo
Experimental: as §1
(2) Tranquilizing or taming effect on cattle:
The test compounds were administered i.m. to cattle, mostly to heifers (150-200 kg).
The most suitable tranquilized state of an animal includes the ability to retain the upright position and coordination with minimal avoidance reactions to painful stimuli and handling. Thus, a combination of sedative and analgesic potency is required.

[4] = system: male mice on a 55° C. hot plate; experiment: Hot plate test; type: in vivo, mouse (male)
Experimental: The analgesic activity of the compounds of formula (I) was tested in the following manner: […]
Test compounds or saline were given i.p. to male mice. Thirty minutes thereafter, the time for which the mice remained on a 55° C. plate was recorded. The results are expressed as compared to saline.

[5] = system: indomethacin-induced ulcers; experiment: Preventive effect on formation of indomethacin-induced ulcers; type: in vivo, rat (female Sprague-Dawley); conditions: for ED50: Rattus norvegicus, ip, 4 h, read-out: ED50 (ulcer prevention)
[6] = as above; type: in vivo, rat (female Sprague-Dawley); conditions: rat, in vivo, iv; LD50 (mouse, i.v.) / ED50 (ulcer); read-out: Therapeutic Index
[7] = Acute toxicity in female NMRI mice, i.v.; conditions: in vivo, iv, mouse
Experimental: Acute toxicity was determined by using female mice of NMRI-Strain with an age of about 7 months and weighing 30-40 g. The administration of the test compound was i.v.

[8] = system: spontaneous hypertensive rats (SHR) (blood pressure); experiment: Blood pressure in unanesthetized Okamoto-Aoki spontaneous hypertensive rats (SHR), peroral; type: in vivo, rat (Okamoto-Aoki SHR)
Experimental: In a further test for anti-hypertensive properties, unanesthetized Okamoto-Aoki spontaneous hypertensive rats (SHR) were used. The test derivative was administered perorally by way of a tube into the stomach. The blood pressure was measured from the tail using an indirect bloodless method.

rats (blood pressure) = experiment: Applicant's experiments on prior-art imidazoles: anti-hypertensive activity / blood pressure in rats; type: in vivo, rat; conditions: for antihypertensive activity: found by our experiments
[9] = read-out: Blood Pressure Minimum Dose having a significant lowering effect
[10] = read-out: Pulse frequency Minimum Dose having a significant lowering effect
[11] = 10 μg/kg i.v., anesthetized rats, on an average

Cc1cccc(Cc2c[nH]cn2)c1C [4-(2',3'-dimethylbenzyl)imidazole, 4-(2',3'-Dimethylbenzyl)imidazole]
minimal effective dose [1, 9]: 0.01 to 0.1 mg/kg
minimal effective dose ([1]; read-out: Pulse frequency Minimum Dose having a significant increasing effect): 3 to 10 mg/kg
minimal effective dose [1, 10]: 0.01 to 1 mg/kg
decrease of motility ([2]; 1.0 mg/kg): +
loss of muscle tone ([2]; 1.0 mg/kg): +
loss of avoidance ([3]; 0.1 mg/kg i.m.): ++
Analgesic activity ([4]; 0.6 mg/kg): +
change in vivo at 0.6 mg/kg ([4]; Mus musculus, ip, 0.5 h, 0.6 mg/kg i.p., read-out: increase in HP-time (%)): 200%
ED50 [5]: 0.005 mg/kg
selectivity ratio [6]: 7000
LD50 [7]: 35 mg/kg

Cc1cccc(C)c1Cc1cnc[nH]1 [4-(2',6'-dimethylbenzyl)imidazole, 4-(2',6'-Dimethylbenzyl)imidazole]
lowering of the blood pressure ([1]; 1 μg/kg i.v., anesthetized rats): detectable lowering of the blood pressure
blood pressure lowering ([1]; 3 μg/kg i.v., anesthetized rats): quite clear
decrease of pulse frequency [1, 11]: 12%
reduction of blood pressure [1, 11]: 30%
therapeutic range ([1]; LD50 40 mg/kg i.v. in mice versus blood pressure lowering doses): very broad
minimal effective dose [1, 9]: 0.003 to 0.1 mg/kg
minimal effective dose [1, 10]: 0.003 mg/kg
duration of the effect ([1]; i.v., anesthetized rats, determination then interrupted): at least 50 minutes
decrease of motility ([2]; 1.0 mg/kg): ++
loss of muscle tone ([2]; 1.0 mg/kg): +
loss of avoidance ([3]; 0.05 mg/kg i.m.): ++
loss of muscle tone ([3]; 0.05 mg/kg i.m.): +
prevention of the formation of ulcers ([5]; 5 μg/kg i.p.): completely prevented the formation of ulcers
ED50 [5]: 0.005 mg/kg
selectivity ratio [6]: 8000
LD50 [7]: 40 mg/kg
decrease of blood pressure ([8]; awake SHR, 100 μg/kg p.o., four hours after administration): about 20%
decrease of blood pressure ([8]; awake SHR, 300 μg/kg p.o., four hours after administration): 25%

Clc1ccccc1Cc1c[nH]cn1 [4-(2'-chlorobenzyl)imidazole, 4-(2'-Chlorobenzyl)imidazole]
catalepsia ([2]; 0.25 mg/kg): +
decrease of motility ([2]; 0.25 mg/kg): +
loss of avoidance ([3]; 0.1 mg/kg i.m.): +
Analgesic activity ([4]; 1.5 mg/kg): +
change in vivo at 1.5 mg/kg ([4]; Mus musculus, ip, 0.5 h, 1.5 mg/kg i.p., read-out: increase in HP-time (%)): 200%
ED50 [5]: 0.03 mg/kg
selectivity ratio [6]: 2170
LD50 [7]: 65 mg/kg

Cc1cccc(C)c1C(O)c1c[nH]cn1 (stereo not drawn) [4-[α-(2',6'-Dimethylphenyl)]hydroxymethylimidazole]
lowering of blood pressure ([1]; 300 μg/kg i.v.): noticeable
minimal effective dose [1, 9]: 0.1 to 3 mg/kg
minimal effective dose [1, 10]: 0.1 mg/kg
prevention of the formation of ulcers ([5]; 0.5 mg/kg): the prevention was partial
prevention of the formation of ulcers ([5]; 5 mg/kg): completely prevented the formation of ulcers
LD50 [7]: 125 mg/kg
decrease of blood pressure ([8]; awake SHR rats, 3 mg/kg p.o., 3 hours after administration): 20%

Cc1[nH]cnc1Cc1ccccc1 [4-benzyl-5-methylimidazole]
antihypertensive activity (rats (blood pressure)): no antihypertensive activity
blood pressure change in rats (rats (blood pressure); rats, 1 mg/kg i.v.): the blood pressure rises
blood pressure lowering effect in rats (rats (blood pressure); rats, at any dosage): no blood pressure lowering effect

CCc1[nH]cnc1Cc1ccccc1 [5(4)-ethyl-4(5)-benzylimidazole]
antihypertensive activity (rats (blood pressure)): no antihypertensive activity
